Results as given in publication PMC12192727, “Strategies to Develop Na,K-ATPase-α4 Inhibitors as Male Contraceptives” (International Journal of Molecular Sciences, 2025).
Where two headings read alike, the source gives them in different places. Marks after values point to notes of the source that are not given here.

Experiments:
Caco-2 cell permeability = type: in vitro ADME, human; settings: human
Procedure: (§1) The in vitro permeability and potential to be transported by P-gp (P-glycoprotein) were determined in a Caco-2 or MDCK cell line. Values are reported for a mass recovery > 60%. The efflux ratio was determined as follows: P^app(B-A)/Papp(A-B). The experimental details are reported in the Supporting Information (Tables S2–S5).
(§2) The recovery can be determined using the following equation:
(§3) Recovery%=(VA×[drug]acceptor+VD×[drug]donor)/(VD×[drug]initial, donor)
(§4) Where VA is the volume (in mL) in the acceptor well (0.235 mL for Ap→Bl flux, and 0.075 mL for
(§5) Bl→Ap), VD is the volume (in mL) in the donor well (0.075 mL for Ap→Bl flux, and 0.235 mL for
(§6) The leakage of Lucifer Yellow, in unit of percentage (%), can be calculated using the following
(§7) %LY leakage = 100×[LY]acceptor×0.3/([LY]donor×0.1+[LY]acceptor×0.3)
(§8) LY leakage of <1% is acceptable to indicate the well-qualified MDCK/ Caco-2 monolayer.
(§9) Table S5 . The Assessment of Caco-2 Cell Monolayer Integrity
(§10) The apparent permeability coefficient (Papp), Efflux ratio (ER), recovery percentage, and LY leakage percentage can be
(§11) calculated for Caco-2 Cell drug transport assays using the above equations. […]

Caco-2 cells = assay: Caco-2 cell permeability; type: in vitro ADME, human; settings: Caco-2 cell line
Procedure: as §1, §2, §3, §4, §5, §6, §7, §8, §9, §10, §11

mouse sperm = assay: Sperm motility after intraperitoneal administration to mice; type: in vivo; settings: intraperitoneal 40 mg/kg for three days
Procedure: To determine whether our compounds had in vivo activity, we tested the effect of 45 after intraperitoneal administration to mice. Compound 45 was injected at a dose of 40 mg/kg for three days. This procedure is based on our previous protocol used for ouabain derivatives. After treatment for 3 days, the animals were sacrificed, sperm was isolated from the cauda epididymis, and sperm motility was assessed using CASA. Compound 45 inhibited total sperm motility by approximately 60% (Figure 9A).
Compound 45 was administered to mice by intraperitoneal injection at a dose of 40 mg/kg of body weight for three days. This protocol was used based on our previous results. At day 3 of treatment, the animals were sacrificed, and sperm was collected from the caudal section of the epididymis. Sperm was incubated under non-capacitating and capacitating conditions, and total and hyperactive sperm motility was determined using CASA.
Figure 9 Effect of compound 45 on total (A) and hyperactive (B) sperm motility in mice in vivo. 45 was administered via intraperitoneal injection at a dosage of 40 mg/kg of body weight for 3 days. Total and hyperactive sperm motility was assessed using sperm from the cauda epididymis. Hyperactive motility was evaluated after incubating the cells in a medium that supports sperm capacitation for 1 h. Sperm motility was analyzed using CASA. […]

[1] = Stability in PBS (pH 7.4); type: physicochemical; settings: PBS pH 7.4, compound remaining after 60 min
Procedure: Solubility, permeability, compound stability, metabolic stability, and toxicity studies were performed at Pharmaron (Waltham, MA, USA).

Question: For CC12CCC(=O)C=C1CCCC2n1cc(-c2ccccc2)nn1 (stereo not shown) [Compound 45, 4a-Methyl-5-(4-phenyl-1H-1,2,3-triazol-1-yl)-4,4a,5,6,7,8-hexahydronaphthalen-2(3H)-one], which Papp A→B (Caco-2 cell permeability; Caco-2, Caco-2 cell line, read-out: Permeability Papp (A-B)) is on record?
Answer: 24 ×10⁻⁶ cm/s

Question: What about the Papp A→B (Caco-2 cell permeability; Caco-2, Caco-2 cells, read-out: Papp (A-B)) of the same compound?
Answer: 24 ×10⁻⁶ cm/s

Question: And the recovery (Caco-2 cell permeability; Caco-2, Caco-2 cells, read-out: Recovery (%) AP-BL)?
Answer: 64.3%

Question: What about the recovery (Caco-2 cell permeability; Caco-2, Caco-2 cells, read-out: Recovery (%) BL-AP) of the same compound?
Answer: 77.9%

Question: And the Papp B→A (Caco-2 cell permeability; Caco-2 cells)?
Answer: 11.8 ×10⁻⁶ cm/s

Question: And the efflux ratio (Caco-2 cell permeability; Caco-2 cells, Papp(B-A)/Papp(A-B))?
Answer: 0.49

Question: What about the “Permeability Papp (A-B)” value (Caco-2 cells) of the same compound?
Answer: good

Question: What about the “Hyperactive sperm motility in vivo” value (mouse sperm; capacitating medium 1 h) of the same compound?
Answer: reduced

Question: What about the “Inhibition of total sperm motility in vivo” value (mouse sperm; cauda epididymis sperm, CASA) of the same compound?
Answer: approximately 60%

Question: What about the Stability [1] of the same compound?
Answer: Stability: 96% ^a
